Measurements taken from patent US20260085073A1, “PYRAZOLYLCARBOXAMIDE COMPOUNDS AND THEIR USE IN THERAPY” (Hotspot Therapeutics, Inc., priority 2022, published 2026).

Molecular target: T1, MALT1 (Homo sapiens, UniProt Q9UDY8)
T1 construct: Avi-tagged FL MALT-1 (Pharmaron, stored at −70° C.); Avi-tag
T1 sequence (Q9UDY8 1-824): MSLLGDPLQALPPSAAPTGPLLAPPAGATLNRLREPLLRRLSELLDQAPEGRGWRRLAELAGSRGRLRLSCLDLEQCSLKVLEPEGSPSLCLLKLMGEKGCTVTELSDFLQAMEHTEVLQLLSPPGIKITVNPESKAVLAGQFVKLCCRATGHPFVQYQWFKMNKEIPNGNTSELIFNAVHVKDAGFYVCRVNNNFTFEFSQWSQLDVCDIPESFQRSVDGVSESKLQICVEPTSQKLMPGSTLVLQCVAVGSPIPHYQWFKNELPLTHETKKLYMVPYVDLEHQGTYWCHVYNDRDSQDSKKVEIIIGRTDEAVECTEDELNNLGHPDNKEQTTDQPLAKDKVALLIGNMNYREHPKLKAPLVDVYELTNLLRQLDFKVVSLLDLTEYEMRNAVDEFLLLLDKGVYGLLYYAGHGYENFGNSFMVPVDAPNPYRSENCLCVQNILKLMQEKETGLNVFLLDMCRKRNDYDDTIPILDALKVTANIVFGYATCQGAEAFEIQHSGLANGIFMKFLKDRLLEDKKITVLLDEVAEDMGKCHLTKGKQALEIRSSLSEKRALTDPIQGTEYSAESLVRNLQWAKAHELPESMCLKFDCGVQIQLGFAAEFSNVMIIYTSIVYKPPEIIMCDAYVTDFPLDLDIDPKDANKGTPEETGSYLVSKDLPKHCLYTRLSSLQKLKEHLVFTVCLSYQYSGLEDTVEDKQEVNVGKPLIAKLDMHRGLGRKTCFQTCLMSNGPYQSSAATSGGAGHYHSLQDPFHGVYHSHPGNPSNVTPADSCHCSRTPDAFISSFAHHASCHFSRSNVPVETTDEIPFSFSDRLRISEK
Assay: MALT1 inhibition assay (MALT-1 Fluorogenic Peptide Cleavage Assay, Ac-LRSR-AMC substrate)
Assay type: biochemical
Conditions: Avi-tagged FL MALT-1, 30 min pre-incubation, 90 min reaction at room temperature, fluorescence intensity
In short: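 Full-length Avi-tagged MALT1 pre-incubated 30 min at room temperature with compounds (2% DMSO final) in HEPES pH 6.89, sodium citrate, TCEP, EDTA, CHAPS buffer. Ac-LRSR-AMC added from 50 µM (Km) or […] working stocks; 90 min at room temperature, AMC fluorescence (ex 342/em 441 nm); IC50 from % inhibition curves.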

IC50 [nM]	SMILES
2500 to 10000	Cn1nc(-c2cccc3nccn23)c(C(F)(F)F)c1C(=O)Nc1ccnc(C2CC2)c1 [Compound I-227, N-(2-cyclopropylpyridin-4-yl)-3-(imidazo[1,2-a]pyridin-5-yl)-1-methyl-4-(trifluoromethyl)-1H-pyrazole-5-carboxamide]
> 10000	Cc1cc(-c2nn(C)c(C(=O)Nc3ccnc(C(F)(F)F)c3)c2C(F)(F)F)n2ccnc2c1 [Compound I-228]
2500 to 10000	Cc1cn2c(-c3nn(C)c(C(=O)Nc4ccnc(C(F)(F)F)c4)c3C(F)(F)F)cccc2n1 [Compound I-229]
500 to 2500	Cn1nc(-c2cncc3ccsc23)c(C(F)(F)F)c1C(=O)Nc1ccnc(C(F)(F)F)c1 [Compound I-230]
> 10000	Cn1nc(-c2n[nH]c3ncncc23)c(C(F)(F)F)c1C(=O)Nc1ccnc(C(F)(F)F)c1 [Compound I-231]
< 500	COc1ccc2ncsc2c1-c1nn(C)c(C(=O)Nc2ccnc(C(F)(F)F)c2)c1C(F)(F)F [Compound I-232]
2500 to 10000	Cn1nc(-c2cccn3nncc23)c(C(F)(F)F)c1C(=O)Nc1ccnc(C(F)(F)F)c1 [Compound I-233]
> 10000	Cn1nc(-c2ccc(F)c3ncsc23)c(C(F)(F)F)c1C(=O)Nc1ccnc(C(F)(F)F)c1 [Compound I-234]
500 to 2500	Cn1nc(-c2cccc3ncsc23)c(C(F)(F)F)c1C(=O)Nc1ccc(C(=O)N2CC(O)C2)c(Cl)c1 [Compound I-235]
2500 to 10000	Cn1nc(-c2cccc3cnoc23)c(C(F)(F)F)c1C(=O)Nc1ccnc(C(F)(F)F)c1 [Compound I-236]
500 to 2500	Cn1nc(-c2nccc3ccsc23)c(C(F)(F)F)c1C(=O)Nc1ccnc(C(F)(F)F)c1 [Compound I-237]
2500 to 10000	Cc1ccc(-c2nn(C)c(C(=O)Nc3ccnc(C(F)(F)F)c3)c2C(F)(F)F)n2ccnc12 [Compound I-238]
> 10000	Cn1nc(-c2n[nH]c3ccncc23)c(C(F)(F)F)c1C(=O)Nc1ccnc(C(F)(F)F)c1 [Compound I-239]
2500 to 10000	Cn1nc(-c2cccc3ncccc23)c(C(F)(F)F)c1C(=O)Nc1ccc(C(=O)N2CC(O)C2)c(Cl)c1 [Compound I-240]
2500 to 10000	Cn1nc(-c2cccc3nccn23)c(C(F)(F)F)c1C(=O)Nc1ccc(C(=O)N2CC(O)C2)c(Cl)c1 [Compound I-241, N-(3-Chloro-4-(3-hydroxyazetidine-1-carbonyl)phenyl)-3-(imidazo[1,2-a]pyridin-5-yl)-1-methyl-4-(trifluoromethyl)-1H-pyrazole-5-carboxamide]
2500 to 10000	Cn1nc(-c2n[nH]c3ncccc23)c(C(F)(F)F)c1C(=O)Nc1ccnc(C(F)(F)F)c1 [Compound I-242]
500 to 2500	Cn1nc(-c2cccc3[nH]c(=O)sc23)c(C(F)(F)F)c1C(=O)Nc1ccnc(C(F)(F)F)c1 [Compound I-243]
500 to 2500	Cn1nc(-c2nsc3ccccc23)c(C(F)(F)F)c1C(=O)Nc1ccnc(C(F)(F)F)c1 [Compound I-244]
500 to 2500	Cn1nc(-c2cc(Cl)cc3nccn23)c(C(F)(F)F)c1C(=O)Nc1ccnc(C(F)(F)F)c1 [Compound I-245]
2500 to 10000	Cn1nc(-c2cccc3oncc23)c(C(F)(F)F)c1C(=O)Nc1ccnc(C(F)(F)F)c1 [Compound I-246]
500 to 2500	Cn1nc(-c2ccnc3nccn23)c(C(F)(F)F)c1C(=O)Nc1ccnc(C(F)(F)F)c1 [Compound I-247]
> 10000	Cn1nc(-c2ccc(Cl)c3nccn23)c(C(F)(F)F)c1C(=O)Nc1ccnc(C(F)(F)F)c1 [Compound I-248]
2500 to 10000	Cn1nc(-c2cccc3[nH]c(=O)ccc23)c(C(F)(F)F)c1C(=O)Nc1ccnc(C(F)(F)F)c1 [Compound I-249]
500 to 2500	Cn1nc(-c2cccc3ncc(F)cc23)c(C(F)(F)F)c1C(=O)Nc1ccnc(C(F)(F)F)c1 [Compound I-250]
500 to 2500	Cn1nc(-c2c(F)ccc3nc(N)sc23)c(C(F)(F)F)c1C(=O)Nc1ccnc(C(F)(F)F)c1 [Compound I-251]

IC50 [nM]	SMILES
2500 to 10000	Cn1nc2c(c1C(=O)Nc1ccnc(C(F)(F)F)c1)CCCc1ccccc1-2 [Compound I-252]
> 10000	Cn1nc(C(=O)Nc2ccnc(C(F)(F)F)c2)c2c1-c1ccccc1CCC2 [Compound I-253]
500 to 2500	Cn1nc2c(c1C(=O)Nc1cnc(-n3nccn3)c(Cl)c1)CCCc1ccccc1-2 [Compound I-254]
> 10000	Cn1nc(C(=O)Nc2cnc(-n3nccn3)c(Cl)c2)c2c1-c1ccccc1CCC2 [Compound I-255]
> 10000	Cn1nc2c(c1C(=O)Nc1cnc(-n3nccn3)c(Cl)c1)CCOc1ccccc1-2 [Compound I-256]
2500 to 10000	Cn1nc2c(c1C(=O)Nc1ccnc(C(F)(F)F)c1)CCc1ccccc1-2 [Compound I-258]
> 10000	Cn1nc2c(c1C(=O)Nc1cnc(-n3nccn3)c(Cl)c1)CCc1ccccc1-2 [Compound I-259]
500 to 2500	Cn1nc(C(=O)Nc2ccnc(C(F)(F)F)c2)c2c1-c1ccccc1CC2 [Compound I-260]
< 500	Cn1nc(-c2c(F)ccc3ncsc23)c(C(F)(F)F)c1C(=O)Nc1ccnc(C(F)(F)F)c1 [Compound I-280]
2500 to 10000	CNc1nc2cccc(-c3nn(C)c(C(=O)Nc4ccnc(C(F)(F)F)c4)c3C(F)(F)F)c2s1 [Compound I-281]
> 10000	Cn1nc(-c2cccc3ncsc23)c(C(F)(F)F)c1C(=O)Nc1ccnc(C2CC2)c1 [Compound I-282]
> 10000	Cc1cn2c(-c3nn(C)c(C(=O)Nc4ccnc(C5CC5)c4)c3C(F)(F)F)cccc2n1 [Compound I-283]
< 500	Cn1nc(-c2cccc3nscc23)c(C(F)(F)F)c1C(=O)Nc1cnc(-n2nccn2)c(Cl)c1 [Compound I-285]
< 500	Cn1nc(-c2cccc3ncsc23)c(C(F)(F)F)c1C(=O)Nc1cnc(-n2nccn2)c(C(F)F)c1 [Compound I-286]
> 10000	COc1cc(NC(=O)c2c(C(F)(F)F)c(-c3ccccc3)nn2C)ccn1 [Compound I-287]
2500 to 10000	Cc1cc(NC(=O)c2c(C(F)(F)F)c(-c3ccccc3)nn2C)cc(C)n1 [Compound I-288]
500 to 2500	Cn1nc(-c2ccc(F)c3nccn23)c(C(F)(F)F)c1C(=O)Nc1ccnc(C(F)(F)F)c1 [Compound I-291]
> 10000	CN(C)c1nc2cccc(-c3nn(C)c(C(=O)Nc4ccnc(C(F)(F)F)c4)c3C(F)(F)F)c2s1 [Compound I-292]
> 10000	COc1nc2cccc(-c3nn(C)c(C(=O)Nc4ccnc(C(F)(F)F)c4)c3C(F)(F)F)c2s1 [Compound I-293]
< 500	COc1nc2cccc(-c3nn(C)c(C(=O)Nc4cnc(-n5nccn5)c(Cl)c4)c3C(F)(F)F)c2s1 [Compound I-294]
2500 to 10000	Cn1nc(-c2cncc3ncccc23)c(C(F)(F)F)c1C(=O)Nc1ccnc(C(F)(F)F)c1 [Compound I-295]
500 to 2500	Cn1nc(-c2c(F)ccc3nccn23)c(C(F)(F)F)c1C(=O)Nc1ccnc(C(F)(F)F)c1 [Compound I-296]
< 500	Cc1nc2cccc(-c3nn(C)c(C(=O)Nc4cnc(-n5nccn5)c(Cl)c4)c3C(F)(F)F)c2s1 [Compound I-297]
> 10000	Cc1nc2cccc(-c3nn(C)c(C(=O)Nc4ccnc(C5CC5)c4)c3C(F)(F)F)c2s1 [Compound I-298]
< 500	Cn1nc(-c2cccc3nc(N)sc23)c(C(F)(F)F)c1C(=O)Nc1cnc(-n2nccn2)c(Cl)c1 [Compound I-299, 3-(2-aminobenzo[d]thiazol-7-yl)-N-(5-chloro-6-(2H-1,2,3-triazol-2-yl)pyridin-3-yl)-1-methyl-4-(trifluoromethyl)-1H-pyrazole-5-carboxamide]
